Read-outs that look alike come from different tables or passages of the source.
Legend:
Assay type in all cases: cell-based
K. pneumoniae = test: Equivalent MIC of antibiotics in VITEK cards, gram-negative bacteria (Table 3); details: for MIC: Klebsiella pneumoniae, 12 h
Description: (§1) With the determination of the sensitivity to antibiotics in mind, a suspension of 0.5 MF (Mac Farland) in physiological water was prepared from bacterial colonies selected in Petri dishes, reading being carried out on an ATB 1550 densitometer marketed by BIOMERIEUX (ATB trade mark). The suspension obtained was respectively diluted to 1/100th in the medium of the invention and Mueller-Hinton medium. VITEK cards (VITEK trade mark) containing different antibiotics at 10 concentrations were filled in vacuo into a VITEK apparatus marketed by BIOMERIEUX-VITEK. The cards were incubated for 12 hours in a VITEK incubator/reader marketed by BIOMERIEUX-VITEK. The growth kinetics were visualized and interpreted and an equivalent MIC was determined (equivalent MIC: equivalent minimum inhibitory concentration, that is to say the smallest concentration for which no bacterial growth is detected by the apparatus).
(§2) IST refers to the medium of the invention and MH signifies Mueller-Hinton medium.
(§3) S, I and R respectively signify "sensitive", "intermediate" and "resistant" with reference to the critical concentrations defined by the NCCLS (National Committee for Clinical Laboratory Standards).

P. aeruginosa = test: as above; details: for MIC: Pseudomonas aeruginosa, 12 h, read-out: Equivalent MIC
Description: as §1, §2, §3

S. aureus = test: microbe, parasite or virus in culture; details: for MIC: Staphylococcus aureus, read-out: Equivalent MIC
Description: as §1, §2
(§4) *A range of concentration, of ratio 2, was tested for each antibiotic in
(§5) each of the abovementioned concentration margins.
as §3

S. epidermidis = test: microbe, parasite or virus in culture; details: CDC 2234; for MIC: Staphylococcus epidermidis, 12 h, read-out: Equivalent MIC
Description: as §1, §2, §4, §5, §3

S. marcescens = test: Equivalent MIC of antibiotics in VITEK cards, gram-negative bacteria (Table 3); details: for MIC: Serratia marcescens, 12 h, read-out: Equivalent MIC
Description: as §1, §2, §3

Question: gentamicin was tested. Which “Equivalent MIC” value (K. pneumoniae; CDC 2177, IST medium) did it give?
Answer: 0.5 mg/L

Question: What about the “NCCLS Category” value (K. pneumoniae; CDC 2177, IST medium) of the same compound?
Answer: S

Question: What about the “Equivalent MIC” value (K. pneumoniae; CDC 2177, MH medium) of the same compound?
Answer: 0.25 mg/L

Question: What about the “NCCLS Category” value (K. pneumoniae; CDC 2177, MH medium) of the same compound?
Answer: S

Question: And the “Equivalent MIC” value (K. pneumoniae; CDC 2249, IST medium)?
Answer: 8 mg/L

Question: And the “NCCLS Category” value (K. pneumoniae; CDC 2249, IST medium)?
Answer: I

Question: And the “Equivalent MIC” value (K. pneumoniae; CDC 2249, MH medium)?
Answer: 8 mg/L

Question: And the “NCCLS Category” value (K. pneumoniae; CDC 2249, MH medium)?
Answer: I

Question: And the “Equivalent MIC” value (K. pneumoniae; CDC 2279, IST medium)?
Answer: 4 mg/L

Question: What about the “NCCLS Category” value (K. pneumoniae; CDC 2279, IST medium) of the same compound?
Answer: S

Question: What about the “Equivalent MIC” value (K. pneumoniae; CDC 2279, MH medium) of the same compound?
Answer: 4 mg/L

Question: What about the “NCCLS Category” value (K. pneumoniae; CDC 2279, MH medium) of the same compound?
Answer: S

Question: And the “Equivalent MIC” value (P. aeruginosa; CDC 2009, IST medium)?
Answer: 16 to 32 mg/L

Question: And the “NCCLS Category” value (P. aeruginosa; CDC 2009, IST medium)?
Answer: R

Question: And the “Equivalent MIC” value (P. aeruginosa; CDC 2009, MH medium)?
Answer: 32 mg/L

Question: And the “NCCLS Category” value (P. aeruginosa; CDC 2009, MH medium)?
Answer: R

Question: And the “Equivalent MIC” value (P. aeruginosa; CDC 2239, IST medium)?
Answer: 2 mg/L

Question: And the “NCCLS Category” value (P. aeruginosa; CDC 2239, IST medium)?
Answer: S

Question: And the “Equivalent MIC” value (P. aeruginosa; CDC 2239, MH medium)?
Answer: 2 mg/L

Question: And the “NCCLS Category” value (P. aeruginosa; CDC 2239, MH medium)?
Answer: S

Question: What about the “Equivalent MIC” value (P. aeruginosa; CDC 2257, IST medium) of the same compound?
Answer: 0.5 to 1 mg/L

Question: And the “NCCLS Category” value (P. aeruginosa; CDC 2257, IST medium)?
Answer: S

Question: What about the “Equivalent MIC” value (P. aeruginosa; CDC 2257, MH medium) of the same compound?
Answer: 0.5 mg/L

Question: What about the “NCCLS Category” value (P. aeruginosa; CDC 2257, MH medium) of the same compound?
Answer: S

Question: For `Cc1onc(-c2ccccc2)c1C(=O)N[C@@H]1C(=O)N2[C@@H]1SC(C)(C)[C@@H]2C(=O)O` [oxacillin], which “NCCLS Category” value (S. aureus; ATCC 29213, IST medium) is on record?
Answer: S

Question: And the “NCCLS Category” value (S. aureus; ATCC 29213, MH medium)?
Answer: S

Question: And the “NCCLS Category” value (S. aureus; CDC 2194, IST medium)?
Answer: S

Question: And the “NCCLS Category” value (S. aureus; CDC 2194, MH medium)?
Answer: S

Question: What about the “NCCLS Category” value (S. aureus; CDC 2215, IST medium) of the same compound?
Answer: S

Question: And the “NCCLS Category” value (S. aureus; CDC 2215, MH medium)?
Answer: S

Question: And the MIC (S. aureus; 12 h, CDC 2194, IST medium)?
Answer: 1 mg/L

Question: What about the MIC (S. aureus; 12 h, CDC 2194, MH medium) of the same compound?
Answer: < 0.5 mg/L

Question: What about the MIC (S. aureus; 12 h, CDC 2215, IST medium) of the same compound?
Answer: 1 mg/L

Question: And the MIC (S. aureus; 12 h, CDC 2215, MH medium)?
Answer: < 0.5 mg/L

Question: What about the MIC (S. aureus; ATCC29213, 12 h, ATCC 29213, IST medium) of the same compound?
Answer: < 0.25 mg/L

Question: And the MIC (S. aureus; ATCC29213, 12 h, ATCC 29213, MH medium)?
Answer: < 0.25 mg/L

Question: What about the “NCCLS Category” value (S. epidermidis; IST medium) of the same compound?
Answer: S

Question: What about the “NCCLS Category” value (S. epidermidis; MH medium) of the same compound?
Answer: R

Question: What about the MIC (S. epidermidis; IST medium) of the same compound?
Answer: 2 mg/L

Question: What about the MIC (S. epidermidis; MH medium) of the same compound?
Answer: 4 mg/L

Question: What does the source list for `CC1COc2c(N3CCN(C)CC3)c(F)cc3c(=O)c(C(=O)O)cn1c23` (stereo not drawn) [ofloxacin]?
Answer: NCCLS Category (K. pneumoniae; API 88.03.111, IST medium): S; NCCLS Category (K. pneumoniae; API 88.03.111, MH medium): S; NCCLS Category (K. pneumoniae; API 88.08.056, IST medium): I; NCCLS Category (K. pneumoniae; API 88.08.056, MH medium): I; NCCLS Category (K. pneumoniae; CDC 2279, IST medium): S; NCCLS Category (K. pneumoniae; CDC 2279, MH medium): S; MIC (K. pneumoniae; API 88.03.111, IST medium): 1 mg/L; MIC (K. pneumoniae; API 88.03.111, MH medium): 1 mg/L; MIC (K. pneumoniae; API 88.08.056, IST medium): 4 mg/L; MIC (K. pneumoniae; API 88.08.056, MH medium): 4 mg/L; MIC (K. pneumoniae; CDC 2279, IST medium): 0.25 mg/L; MIC (K. pneumoniae; CDC 2279, MH medium): 0.25 mg/L; NCCLS Category (S. marcescens; API 81.45.111, IST medium): I; NCCLS Category (S. marcescens; API 81.45.111, MH medium): S; NCCLS Category (S. marcescens; API 81.47.110, IST medium): R; NCCLS Category (S. marcescens; API 81.47.110, MH medium): R; MIC (S. marcescens; API 81.45.111, IST medium): 4 mg/L; MIC (S. marcescens; API 81.45.111, MH medium): 2 mg/L; MIC (S. marcescens; API 81.47.110, IST medium): 16 mg/L; MIC (S. marcescens; API 81.47.110, MH medium): 8 mg/L

Question: How did the “NCCLS Category” value (K. pneumoniae; AP 14, MH medium) turn out when `CCN1CCN(C(=O)N[C@@H](C(=O)N[C@@H]2C(=O)N3[C@@H]2SC(C)(C)[C@@H]3C(=O)O)c2ccccc2)C(=O)C1=O` [piperacillin] was run?
Answer: R

Question: What about the “NCCLS Category” value (K. pneumoniae; CDC 2174, IST medium) of the same compound?
Answer: S

Question: And the “NCCLS Category” value (K. pneumoniae; CDC 2174, MH medium)?
Answer: S

Question: And the “NCCLS Category” value (K. pneumoniae; CDC 2182, IST medium)?
Answer: S

Question: What about the “NCCLS Category” value (K. pneumoniae; CDC 2182, MH medium) of the same compound?
Answer: I

Question: What about the MIC (K. pneumoniae; AP 14, IST medium) of the same compound?
Answer: 64 mg/L

Question: And the MIC (K. pneumoniae; AP 14, MH medium)?
Answer: 256 mg/L

Question: What about the MIC (K. pneumoniae; CDC 2174, IST medium) of the same compound?
Answer: 8 mg/L

Question: And the MIC (K. pneumoniae; CDC 2174, MH medium)?
Answer: 8 mg/L

Question: And the MIC (K. pneumoniae; CDC 2182, IST medium)?
Answer: 16 mg/L

Question: And the MIC (K. pneumoniae; CDC 2182, MH medium)?
Answer: 32 mg/L

Question: What about the “NCCLS Category” value (P. aeruginosa; AP 8, IST medium) of the same compound?
Answer: S

Question: And the “NCCLS Category” value (P. aeruginosa; AP 8, MH medium)?
Answer: S

Question: What about the “NCCLS Category” value (P. aeruginosa; AP 13, IST medium) of the same compound?
Answer: S

Question: What about the “NCCLS Category” value (P. aeruginosa; AP 13, MH medium) of the same compound?
Answer: S

Question: And the MIC (P. aeruginosa; AP 8, IST medium)?
Answer: 4 mg/L

Question: What about the MIC (P. aeruginosa; AP 8, MH medium) of the same compound?
Answer: 4 mg/L

Question: And the MIC (P. aeruginosa; AP 13, IST medium)?
Answer: 8 to 16 mg/L

Question: And the MIC (P. aeruginosa; AP 13, MH medium)?
Answer: 16 mg/L

Question: What about the “NCCLS Category” value (S. marcescens; CDC 2021, IST medium) of the same compound?
Answer: S

Question: What about the “NCCLS Category” value (S. marcescens; CDC 2021, MH medium) of the same compound?
Answer: S

Question: What about the “NCCLS Category” value (S. marcescens; CDC 2162, IST medium) of the same compound?
Answer: R

Question: What about the “NCCLS Category” value (S. marcescens; CDC 2162, MH medium) of the same compound?
Answer: R

Question: And the MIC (S. marcescens; CDC 2021, IST medium)?
Answer: 2 mg/L

Question: What about the MIC (S. marcescens; CDC 2021, MH medium) of the same compound?
Answer: 2 mg/L

Question: What about the MIC (S. marcescens; CDC 2162, IST medium) of the same compound?
Answer: > 256 mg/L

Question: And the MIC (S. marcescens; CDC 2162, MH medium)?
Answer: > 256 mg/L

Source: patent publication US5536645A, “Nutritive medium for the culture of microorganism” (priority 1993, dated 1996)
